# Counter-ions that a name gives are not always drawn.
# Tests used:
# [1] = tested on: MDA-MB-436 human breast cancer xenografts; test: Antitumor activity against subcutaneous MDA-MB-436 human breast cancer xenografts in SCID mice (three studies); format: in vivo
# Protocol: MDA-MB-436 human triple negative breast cancer cells are BRCA1 mutant and PTEN null. Cells were maintained in monolayer cultures in RPMI-1640 growth medium supplemented with 10% fetal bovine serum at 37° C. in a 5% CO2 humidified incubator. On the day of inoculation, cells were harvested by trypsinization, washed, and resuspended in ice-cold PBS. Female immunodeficient SCID mice were inoculated subcutaneously near the right axillary area with MDA-MB-436 cells (5×10^6) in a 1:1 ratio (50 μL each) with Matrigel™ in a volume of 0.1 mL in phosphate buffered saline, using a 26-gauge needle. A total of 125 mice, approximately 6 weeks old were implanted with MDA-MB-436 cells.
# E7449, carboplatin and E7389 were evaluated as single agents and in combination for antitumor activity against MDA-MB-436 human breast cancer xenografts in SCID mice. Three separate studies were performed. The first experiment consisted of a vehicle control group, an E7449 single agent group, two groups treated with single agent E7389 and 2 combination drug-treated groups (Table 1). Thirty mice were inoculated with MDA-MB-436 cells and on Day 58 following implantation, tumor volumes were measured and mice were randomized into the 6 treatment groups based on tumor volume (average of 300 mm^3). Following randomization, drug treatment was initiated. Groups A to D were composed of 5 mice and groups E and F consisted of 4 mice for a total of 28 mice on the first day of treatment. E7449 was formulated in 0.5% methyl cellulose and orally administered once daily for 28 days (starting on Day 58) at 60 mg/kg based on body weight at 0.1 mL per 10 g. E7389 was formulated in saline and was intravenously administered once every 4 days, 4 times (Day 58, 62, 66, and 70) at a dosage of 0.4 or 1.6 mg/kg as single agent or in combination with E7449, based on body weight at 0.1 mL per 10 g. The control group was treated with oral vehicle (0.5% methyl cellulose in water) daily and intravenous vehicle (saline) once every 4 days, 4 times. E7449 or vehicle was administered first and when dosing of all animals was complete, E7389 was administered to animals receiving the combination.
# The second experiment consisted of a vehicle control group, an E7449 single agent group, 2 groups treated with single agent carboplatin, and 2 combination drug-treated groups (Table 2). Thirty-five mice were inoculated with MDA-MB-436 cells and on Day 57, following implantation, tumor volumes were measured and mice were randomized into 6 treatment groups based on tumor volume (average of 250 mm^3). Following randomization drug treatment was initiated. Groups A to D were composed of 5 mice and groups E and F consisted of 6 mice for a total of 32 mice on the first day of treatment. E7449, formulated in 0.5% methyl cellulose was orally administered daily for 28 days (starting on Day 57), at 60 mg/kg based on body weight at 0.1 mL per 10 g. Carboplatin was formulated in saline and was intravenously administered once on the first day of treatment (Day 57) at a dosage of 15 or 60 mg/kg as a single agent or in combination with E7449 based on body weight at 0.1 mL per 10 g. The control group was treated with oral vehicle (0.5% methyl cellulose in water) daily and intravenous vehicle (saline) once on Day 57. E7449 or vehicle was administered first, and when dosing of all animals was complete carboplatin was administered to animals receiving the combination.
# The third experiment consisted of a vehicle control group, 3 groups treated with single agent E7449, E7389, or carboplatin, 3 groups treated with double combinations of E7449+E7389, E7449+carboplatin, and E7389+carboplatin and a group treated with the three-drug combination (Table 3). Sixty mice were inoculated with MDA-MB-436 cells and on Day 41 following implantation, tumor volumes were measured and mice were randomized into 8 treatment groups based on tumor volume (average of 250 mm^3). Following randomization drug treatment was initiated.
# [2] = tested on: poly (ADP-ribose) (PAR) levels; test: Pharmacodynamic biomarker analysis of poly (ADP-ribose) (PAR) levels in triple negative breast cancer xenograft tumor lysates; format: in vivo
# Protocol: PAR levels rebounded at 24 hours in all models. […] In the HCC1806 (wild type for BRCA and PTEN) tumor lysate, E7389 treatment alone increased PAR at 24 and 48 hours.
SMILES,"antitumor effect (tumor volume) ([1]; E7449+E7389 study, E7389 0.4 mg/kg IV Q4Dx4, single agent)","antitumor effect (tumor volume) ([1]; E7449+E7389 study, E7389 1.6 mg/kg IV Q4Dx4, single agent)","antitumor effect (tumor volume), dose dependence ([1]; E7449+E7389 study, E7389 0.4 and 1.6 mg/kg IV Q4Dx4, single agent)","antitumor effect (tumor volume) ([1]; triple combination study, E7389 0.2 mg/kg IV Q4Dx4, single agent, 0.2 mg/kg)",PARP activity in tumor lysates ([2]; E7389 treatment alone),"PAR levels in tumor lysates ([2]; HCC1806 tumor lysate, E7389 alone, 24 and 48 hours)","antitumor effect (tumor volume) ([1]; E7449+E7389 study, E7449 60 mg/kg PO QDx28, single agent)","antitumor effect (tumor volume) ([1]; E7449+carboplatin study, E7449 60 mg/kg PO QDx28, single agent)","antitumor effect (tumor volume) ([1]; triple combination study, E7449 60 mg/kg PO QDx28, single agent)","PARP inhibition / PAR levels in tumor lysates ([2]; 6 hours, MDA-MB-436, MDA-MB-468, MDA-MB-231 and HCC1806 tumor lysates)","PAR levels in tumor lysates ([2]; 24 hours, all four models)"
"C=C1C[C@@H]2CC[C@@]34C[C@H]5OC6[C@@H](O[C@H]7CC[C@H](CC(=O)C[C@@H]8[C@@H](OC)[C@@H](C[C@H](O)CN)O[C@H]8C[C@H]8O[C@@H](CC[C@@H]1O2)C[C@@H](C)C8=C)O[C@@H]7[C@@H]6O3)[C@H]5O4 [E7389, 11, 15:18,21:24,28-triepoxy-7,9-ethano-12,15-methano-9H,15H-furo[3,2-i]furo[2′,3′:5,6]pyrano[4,3-b] [1,4]dioxacyclopentacosin-5(4H)-one, 2-[(2S)-3-amino-2-hydroxypropyl]hexacosahydro-3-methoxy-26-methyl-20,27-bis(methylene)-, (2R,3R,3aS,7R,8aS,9S,10aR,11S,12R,13aR,13bS,15S,18S,21S,24S,26R,28R,29aS)-methanesulfonate (salt)]",modest antitumor effect,tumor regression,Dose dependent antitumor activity,did not significantly inhibit tumor growth,did not inhibit PARP activity,increased PAR,–,–,–,–,–
O=c1[nH]nc2c3c(cccc13)N=C(CN1Cc3ccccc3C1)N2 [E7449],–,–,–,–,–,–,modest and statistically significant tumor growth inhibition,modest and statistically significant tumor growth inhibition,statistically significant tumor growth inhibition,complete PARP inhibition,rebounded
